Columns and labels:
Type in all cases: cell-based
[1] = molecular target: T1, Adenosine receptor A1 (Homo sapiens, UniProt P30542); assay: Displacement of [3H]DPCPX from human recombinant adenosine A1 receptor expressed in CHO cells after 60 mins by liquid scintillation counting
T1 sequence (P30542 whole entry): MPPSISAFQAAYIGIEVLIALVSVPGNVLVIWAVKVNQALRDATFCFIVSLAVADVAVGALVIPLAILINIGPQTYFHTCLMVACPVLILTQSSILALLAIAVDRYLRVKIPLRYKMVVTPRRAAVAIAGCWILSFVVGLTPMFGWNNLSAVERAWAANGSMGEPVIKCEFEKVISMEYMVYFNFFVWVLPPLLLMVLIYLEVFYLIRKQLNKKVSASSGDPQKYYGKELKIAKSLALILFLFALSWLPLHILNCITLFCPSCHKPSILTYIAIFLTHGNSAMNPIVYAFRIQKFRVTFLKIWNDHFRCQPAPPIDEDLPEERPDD

[2] = molecular target: T2, Adenosine receptor A3 (Homo sapiens, UniProt P0DMS8); assay: Displacement of [125I]I-AB-MECA from human recombinant adenosine A3 receptor expressed in CHO cells after 60 mins by gamma scintillation counting
T2 sequence (P0DMS8 whole entry): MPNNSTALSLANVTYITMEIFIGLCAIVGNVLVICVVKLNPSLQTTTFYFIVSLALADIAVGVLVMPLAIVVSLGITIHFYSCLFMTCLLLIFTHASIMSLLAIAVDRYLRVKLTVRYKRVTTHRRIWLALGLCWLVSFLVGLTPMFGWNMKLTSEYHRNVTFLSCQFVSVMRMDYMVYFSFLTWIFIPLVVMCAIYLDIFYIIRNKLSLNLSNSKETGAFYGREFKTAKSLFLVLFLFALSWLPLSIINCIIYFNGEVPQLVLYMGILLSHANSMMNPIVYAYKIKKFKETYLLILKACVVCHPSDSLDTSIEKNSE

[3] = molecular target: Adenosine receptor A2a (Homo sapiens, UniProt P29274); assay: Displacement of [3H]CGS21680 from human recombinant adenosine A2A receptor expressed in HEK293 cells after 60 mins by liquid scintillation counting
Sequence of Adenosine receptor A2a (P29274 whole entry): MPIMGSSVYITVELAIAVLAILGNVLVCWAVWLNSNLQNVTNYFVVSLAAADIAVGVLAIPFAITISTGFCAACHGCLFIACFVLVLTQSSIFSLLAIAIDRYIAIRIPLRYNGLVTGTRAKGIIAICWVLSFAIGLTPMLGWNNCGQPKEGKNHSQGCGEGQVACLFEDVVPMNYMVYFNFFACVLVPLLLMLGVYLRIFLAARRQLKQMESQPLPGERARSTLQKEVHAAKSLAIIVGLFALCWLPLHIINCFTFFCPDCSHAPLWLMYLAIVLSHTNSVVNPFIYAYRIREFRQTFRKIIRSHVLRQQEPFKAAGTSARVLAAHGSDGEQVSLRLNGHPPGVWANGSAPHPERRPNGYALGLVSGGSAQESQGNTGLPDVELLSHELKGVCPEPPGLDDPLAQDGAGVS

[4] = molecular target: T3, Adenosine receptor A3 (Homo sapiens) (UniProt P0DMS8); assay: Displacement of [125I]I-AB-MECA from human recombinant adenosine A3 receptor expressed in CHO cells at 10 uM after 60 mins by gamma scintillation counting
T3 sequence (whole entry): T2 sequence (P0DMS8 whole entry)

[5] = molecular target: T4, Adenosine receptor A1 (Homo sapiens) (UniProt P30542); assay: Displacement of [3H]DPCPX from human recombinant adenosine A1 receptor expressed in CHO cells at 10 uM after 60 mins by liquid scintillation counting
T4 sequence (whole entry): T1 sequence (P30542 whole entry)

C#CCCCCC(=O)NCCNC(=O)COc1ccc(CCCn2ncc3c2nc(N)n2nc(-c4ccco4)nc32)cc1
Ki [1]: 1100 nM | Ki [2]: 1280 nM | Ki [3]: 75.4 nM

Nc1nc2c(cnn2CCCc2ccc(OCC(=O)NCCNCCNC(=O)CCCCCNC(=O)COc3ccc(/C=C/C4=[N+]5C(=Cc6ccc(-c7ccc[nH]7)n6[B-]5(F)F)C=C4)cc3)cc2)c2nc(-c3ccco3)nn12
inhibition [4]: 28% | Ki [3]: 15.1 nM

CC(=O)NCCn1cc(CCCCC(=O)NCCNC(=O)COc2ccc(CCCn3ncc4c3nc(N)n3nc(-c5ccco5)nc43)cc2)nn1
Ki [1]: 1700 nM | Ki [2]: 302 nM | Ki [3]: 220 nM

Nc1nc2c(cnn2CCCc2ccc(OCC(=O)O)cc2)c2nc(-c3ccco3)nn12
Ki [1]: 1700 nM | inhibition [4]: 29% | Ki [3]: 10.2 nM

COC(=O)COc1ccc(CCCn2ncc3c2nc(N)n2nc(-c4ccco4)nc32)cc1
Ki [1]: 4840 nM | inhibition [4]: 50% | Ki [3]: 96 nM

Nc1nc2c(cnn2CCCc2ccc(OCCCF)cc2)c2nc(-c3ccco3)nn12
Ki [1]: 1000 nM | Ki [2]: 1320 nM | Ki [3]: 53.6 nM

COc1ccc(CCCn2ncc3c2nc(N)n2nc(-c4ccco4)nc32)cc1
inhibition [5]: 35%

CN(C)c1ccc2c(-c3ccc(C(=O)NCCNC(=O)COc4ccc(CCCn5ncc6c5nc(N)n5nc(-c7ccco7)nc65)cc4)cc3C(=O)[O-])c3ccc(=[N+](C)C)cc-3oc2c1
inhibition [4]: 24% | Ki [3]: 357 nM | inhibition [5]: 7%

Nc1nc2c(cnn2CCCc2ccc(O)cc2)c2nc(-c3ccco3)nn12
Ki [1]: 4440 nM

N=c1ccc2c(-c3ccc(C(=O)NCCNC(=O)COc4ccc(CCCn5ncc6c5nc(N)n5nc(-c7ccco7)nc65)cc4)cc3C(=O)O)c3ccc(N)c(S(=O)(=O)O)c3oc-2c1S(=O)(=O)O
inhibition [4]: 4% | Ki [3]: 111 nM | inhibition [5]: 20%

NCCNC(=O)COc1ccc(CCCn2ncc3c2nc(N)n2nc(-c4ccco4)nc32)cc1
Ki [1]: 1270 nM | Ki [2]: 3970 nM | Ki [3]: 6.8 nM

NCCNCCNC(=O)COc1ccc(CCCn2ncc3c2nc(N)n2nc(-c4ccco4)nc32)cc1
Ki [2]: 3290 nM | Ki [3]: 10.7 nM | inhibition [5]: 20%
